Values of other authors, collected in patent publication US20060281749A1, “Method for treating glaucoma IV B” (priority 2000, published 2006).

Legend:
Rhesus monkeys [1] = conditions: accommodative responses to i.m. pilocarpine
Rhesus monkeys [2] = conditions: drug treated vs. control eye, baseline and pilocarpine-stimulated conditions

Compound: Cc1sc[n+](CC(=O)c2ccccc2)c1C.[Cl-] [4,5-dimethyl-3-(2-oxoethyl-phenethyl) thiazolium chloride]
- Improvement in accommodation (Rhesus monkeys [1]): Improvement in accommodation has been illustrated
- improvement in ophthalmologic function (increase in outflow facility) (Rhesus monkeys [2]): improvement has been illustrated
